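Each compound was tested at five concentrations against cells in 96-well plates for 48 hours. TGI marks complete inhibition of growth.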
Experiments:
Assay in all cases: NCI tumour cell line growth inhibition, 48 h
DMS 273 small cell lung = tested on: DMS 273 small cell lung
KM20L2 colon = tested on: KM20L2 colon
XF 498 CNS = tested on: XF 498 CNS
LXFL 529 NSCLC = tested on: LXFL 529 NSCLC
M19-MEL melanoma = tested on: M19-MEL melanoma
RXF-631 renal = tested on: RXF-631 renal

COc1ccc(-c2cc3[nH]nc(N)c3c(=O)o2)cc1
TGI (DMS 273 small cell lung): > 100 µM
TGI (KM20L2 colon): > 100 µM
TGI (XF 498 CNS): > 100 µM
TGI (LXFL 529 NSCLC): > 100 µM

Cn1cc2ccccc2c1-c1nc(F)nc(OCC(=O)[C@H]2CCC3[C@@H]4CCC5=CC(=O)CC[C@]5(C)C4[C@@H](O)C[C@@]32C)n1 (stereo partly drawn)
TGI (DMS 273 small cell lung): 36.1 µM
TGI (KM20L2 colon): > 57 µM
TGI (XF 498 CNS): 21.9 µM
TGI (LXFL 529 NSCLC): 9.59 µM
TGI (M19-MEL melanoma): 14.9 µM
TGI (RXF-631 renal): 6.82 µM

COC(=O)c1c2cccccc-2c(Cc2c3cccccc-3c(C(=O)OC)c2O)c1O
TGI (DMS 273 small cell lung): > 100 µM
TGI (KM20L2 colon): > 100 µM
TGI (XF 498 CNS): > 100 µM
TGI (M19-MEL melanoma): > 100 µM

Nc1nc2c3nc(Nc4ccccc4)sc3nc(=O)n2c2sc(Nc3ccccc3)nc12
TGI (DMS 273 small cell lung): > 100 µM
TGI (KM20L2 colon): > 100 µM
TGI (XF 498 CNS): > 100 µM
TGI (LXFL 529 NSCLC): > 100 µM
TGI (M19-MEL melanoma): > 100 µM

CC(C)CC(NC(=O)OC(C)(C)C)C(=O)Nc1ccc(Nc2nc(F)nc(-c3c4ccccc4cn3C)n2)cc1 (stereo not drawn)
TGI (DMS 273 small cell lung): > 100 µM
TGI (KM20L2 colon): > 100 µM
TGI (XF 498 CNS): > 100 µM
TGI (LXFL 529 NSCLC): > 100 µM
TGI (M19-MEL melanoma): > 100 µM

CCN1CCC(O)(c2ccc(Cl)cc2)C(C(=O)c2ccc(Cl)cc2)C1 (stereo not drawn)
TGI (DMS 273 small cell lung): > 100 µM
TGI (KM20L2 colon): > 100 µM
TGI (XF 498 CNS): > 100 µM
TGI (LXFL 529 NSCLC): > 100 µM
TGI (M19-MEL melanoma): > 100 µM

Cc1cc2c([nH]c3ccccc32)c2c1OC(C)(C)C1C3CC(C)(C)Oc4c(C)cc5c6ccccc6n(c5c43)C21 (stereo not drawn)
TGI (DMS 273 small cell lung): > 100 µM
TGI (KM20L2 colon): > 100 µM
TGI (LXFL 529 NSCLC): > 100 µM
TGI (M19-MEL melanoma): > 100 µM

CCCCCCCCCCCCCCCCCCN(C)CC(COP(=O)([O-])OCC[N+](C)(C)C)OC (stereo not drawn)
TGI (DMS 273 small cell lung): 5.4 µM
TGI (KM20L2 colon): 4.16 µM
TGI (XF 498 CNS): 29.9 µM
TGI (LXFL 529 NSCLC): 21.6 µM
TGI (M19-MEL melanoma): 13.1 µM
TGI (RXF-631 renal): 43.7 µM

CC1(C)C2C=CC1C(=O)CC2 (stereo not drawn)
TGI (DMS 273 small cell lung): > 100 µM
TGI (KM20L2 colon): > 100 µM
TGI (XF 498 CNS): > 100 µM
TGI (LXFL 529 NSCLC): > 100 µM
TGI (RXF-631 renal): > 100 µM

O=C1c2ccc(O)c(O)c2C(=O)c2c(O)ccc(O)c21
TGI (DMS 273 small cell lung): 61.7 µM
TGI (KM20L2 colon): 70.8 µM
TGI (LXFL 529 NSCLC): > 100 µM
TGI (M19-MEL melanoma): > 100 µM

CCN(CC)C(=O)C(C)n1cc(C)c(=O)[nH]c1=O (stereo not drawn)
TGI (DMS 273 small cell lung): > 100 µM
TGI (KM20L2 colon): > 100 µM
TGI (XF 498 CNS): > 100 µM
TGI (LXFL 529 NSCLC): > 100 µM
TGI (M19-MEL melanoma): > 100 µM

Reference: PubChem BioAssay (NCI)
